Some test systems named below: A549 NSCLC; HCT-15 colon; SN12C renal; SK-OV-3 ovarian; HOP-62 NSCLC; NCI-H226 lung; HCT-116 colon; MDA-MB-435; SK-MEL-28 melanoma; OVCAR-5 ovarian.
What all share (experiment): growth of human tumour cells (NCI), 48 h

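96-well plates; 48 h exposure; 5 concentrations. Endpoints by linear interpolation between flanking doses. Not reached: highest tested concentration assigned. At the GI50, growth is halved. TGI: concentration producing complete growth inhibition.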

As to `COc1ccc(Nc2cc(C)nc(N3CCN(c4ccnc5cc(Cl)ccc45)CC3)n2)cc1`, the GI50 in the assay with A549 NSCLC is 2 µM; in the assay with HCT-15 colon, 2.06 µM; in the assay on SN12C renal it was 2.8 µM; in the assay on SK-OV-3 ovarian, 4.81 µM; in the assay on HOP-62 NSCLC it was 3.89 µM; with NCI-H226 lung it was 4.7 µM. Besides, the results for the GI50 with HCT-116 colon and in the assay with MDA-MB-435 were 1.34 µM and 1.06 µM, respectively. Further, the TGI with A549 NSCLC, in the assay on HCT-15 colon, in the assay on SN12C renal, in the assay on SK-OV-3 ovarian, with HOP-62 NSCLC and with NCI-H226 lung was greater than 100 µM each time. In addition, the TGI in the assay on HCT-116 colon worked out at 3.24 µM; in the assay with MDA-MB-435, 6.43 µM.

Consider `O=C1CC(c2ccc(Cl)cc2)Oc2ccccc21` (stereo not given), for which the TGI was 48 µM in the assay on HCT-15 colon; 61 µM with SK-OV-3 ovarian; 56 µM with HOP-62 NSCLC; 33.6 µM in the assay on NCI-H226 lung; greater than 100 µM in the assay on HCT-116 colon; greater than 100 µM in the assay on MDA-MB-435. Further, the TGI with SK-MEL-28 melanoma is greater than 100 µM.

For the compound `N#CC1=C(Cl)NC(Cl)=C(C#N)C1c1c(Cl)cccc1Cl`, the TGI with A549 NSCLC is 83.6 µM; with HCT-15 colon, 29.7 µM; in the assay with SN12C renal, 79.5 µM; in the assay with SK-OV-3 ovarian, 88.8 µM; with HOP-62 NSCLC it was greater than 100 µM; in the assay with NCI-H226 lung, greater than 100 µM. The TGI in the assay with OVCAR-5 ovarian was greater than 100 µM; in the assay on HCT-116 colon it was 34.3 µM; in the assay on SK-MEL-28 melanoma, greater than 100 µM.

As to `O=C(O)c1ccccc1NC(=O)C1CCCCC1`, the TGI in the assay on A549 NSCLC, with HCT-15 colon, in the assay on SN12C renal, in the assay with SK-OV-3 ovarian, in the assay with HOP-62 NSCLC and in the assay with NCI-H226 lung was greater than 100 µM each time. The TGI in the assay on OVCAR-5 ovarian, with HCT-116 colon and in the assay with SK-MEL-28 melanoma was greater than 100 µM throughout.

Consider `CCC(Oc1ccc(OC)c2ccccc(=O)c12)C(=O)O` (stereo not given), for which the TGI in the assay with A549 NSCLC, in the assay on HCT-15 colon, in the assay with SN12C renal, in the assay on SK-OV-3 ovarian, in the assay on HOP-62 NSCLC and in the assay on NCI-H226 lung was greater than 100 µM throughout. In addition, the TGI in the assay on OVCAR-5 ovarian, with HCT-116 colon and with SK-MEL-28 melanoma was greater than 100 µM in each case.

With `CCCNc1nc2ccccc2c2c1S(=O)(=O)c1ccc(Cl)cc1C2=O`, the GI50 is 1.99 µM with A549 NSCLC; 0.728 µM in the assay on HCT-15 colon; 0.648 µM in the assay with SN12C renal; 3.06 µM in the assay with SK-OV-3 ovarian; 1.77 µM in the assay with HOP-62 NSCLC; 1.51 µM in the assay on NCI-H226 lung. The GI50 in the assay with HCT-116 colon was 0.425 µM; in the assay with MDA-MB-435 it was 1.11 µM; with SK-MEL-28 melanoma, 1.61 µM. Moreover, the TGI in the assay with A549 NSCLC is greater than 50 µM; in the assay with HCT-15 colon, greater than 50 µM; in the assay with SN12C renal, 3.24 µM; in the assay with SK-OV-3 ovarian, 41.1 µM; in the assay on HOP-62 NSCLC, greater than 50 µM; with NCI-H226 lung, greater than 50 µM. In addition, the TGI with HCT-116 colon, in the assay with MDA-MB-435 and in the assay with SK-MEL-28 melanoma was greater than 50 µM each time.

Take `COC(=O)C1=CC2OC1(C)CCC2=O` (stereo not given): the TGI in the assay with A549 NSCLC, in the assay with HCT-15 colon, in the assay with SN12C renal, in the assay with SK-OV-3 ovarian, in the assay on HOP-62 NSCLC and in the assay on NCI-H226 lung was greater than 100 µM in each case. The TGI in the assay on OVCAR-5 ovarian, with HCT-116 colon and with SK-MEL-28 melanoma was greater than 100 µM in each case.

Regarding `Cc1cccc2nc3cccc(C(=O)NCCN(C)C)c3nc12`, the TGI with A549 NSCLC was determined as 15.3 µM; in the assay with HCT-15 colon, 2.19 µM; in the assay with SN12C renal, 3.15 µM; with SK-OV-3 ovarian, 6.74 µM; in the assay on HOP-62 NSCLC, 1.39 µM; with NCI-H226 lung, 4.17 µM. Besides, the TGI in the assay with OVCAR-5 ovarian stood at 5.97 µM; in the assay on HCT-116 colon, 10.8 µM; in the assay on SK-MEL-28 melanoma it was 2.93 µM.

With `COc1ccc2c(c1OC)C(=O)c1cnccc1C2=O`, the TGI with A549 NSCLC, in the assay with HCT-15 colon, with SN12C renal, in the assay on SK-OV-3 ovarian, with HOP-62 NSCLC and in the assay on NCI-H226 lung was greater than 100 µM in each case. For the same compound, the TGI with OVCAR-5 ovarian, in the assay on HCT-116 colon and in the assay with SK-MEL-28 melanoma was greater than 100 µM each time.

As for `CCC(=O)N/N=C(\C=C\c1cccc(O)c1)c1sc(Nc2ccc(C)cc2[N+](=O)[O-])nc1C`, the TGI with A549 NSCLC, with HCT-15 colon, with SN12C renal, in the assay with SK-OV-3 ovarian, with HOP-62 NSCLC and in the assay with NCI-H226 lung was greater than 100 µM throughout. For the same compound, the TGI with OVCAR-5 ovarian, with HCT-116 colon and with SK-MEL-28 melanoma was greater than 100 µM in each case.

Take `CC(C)c1cc(OCC(O)CO)cc(C(C)C)c1` (stereo not given): the TGI with A549 NSCLC, in the assay on HCT-15 colon, with SN12C renal, in the assay with SK-OV-3 ovarian, in the assay with HOP-62 NSCLC and in the assay with NCI-H226 lung was greater than 100 µM each time. Besides, the TGI in the assay with OVCAR-5 ovarian, with HCT-116 colon and in the assay with SK-MEL-28 melanoma was greater than 100 µM in each case.

As to `O=C(Nc1ccc(Cl)c(Cl)c1)OCCN1c2ccccc2Sc2ccccc21`, the TGI with A549 NSCLC, in the assay with HCT-15 colon, in the assay with SN12C renal, in the assay with SK-OV-3 ovarian, in the assay with HOP-62 NSCLC and with OVCAR-5 ovarian was greater than 10 µM throughout. In addition, the TGI in the assay with HCT-116 colon, in the assay on MDA-MB-435 and in the assay on SK-MEL-28 melanoma was greater than 10 µM throughout.

`Cc1cc(Cl)ccc1C1OC(=O)c2c1ccc1ccccc21` (stereo not given): the TGI in the assay on A549 NSCLC, in the assay on HCT-15 colon, in the assay on SN12C renal, with SK-OV-3 ovarian, with HOP-62 NSCLC and in the assay on NCI-H226 lung was greater than 100 µM in each case. For the same compound, the TGI in the assay with OVCAR-5 ovarian, with HCT-116 colon and in the assay with SK-MEL-28 melanoma was greater than 100 µM each time.

In the case of `O=C1NC(=O)C2C1N(Cc1ccccc1)C(=O)N2Cc1ccccc1` (stereo not given), the TGI with A549 NSCLC, in the assay on HCT-15 colon, with SN12C renal, in the assay with SK-OV-3 ovarian, with HOP-62 NSCLC and with NCI-H226 lung was greater than 100 µM throughout. The TGI in the assay with OVCAR-5 ovarian, in the assay with HCT-116 colon and with SK-MEL-28 melanoma was greater than 100 µM each time.

The record behind these values is PubChem BioAssay (NCI).
